Assay results: ChEMBL document CHEMBL6182948 (J Med Chem, 2025)

Experiments:
[1] = Stability in human plasma assessed as half life at 100 uM measured up to 120 mins by LC-MS/MS analysis; assay type: ADME, cell-free
[2] = Cytotoxicity against HUVEC assessed as inhibition of cell viability incubated for 48 hrs by CellTiter Glo assay; assay type: toxicity, cell-based; conditions: human, HUVEC cells
[3] = Metabolic stability in liver microsomes (unknown origin) assessed as compound remaining at 0.5 mg/ml measured after 15 mins in presence of NADPH regenerating system by LC-MS/MS analysis relative to control; assay type: ADME, Microsome; conditions: read-out: Stability
[4] = Stability in human plasma assessed as compound remaining at 100 uM measured after 5 mins by LC-MS/MS analysis; assay type: ADME, cell-free; conditions: read-out: Stability
[5] = target: T1, Cytochrome P450 2C8 (Homo sapiens, UniProt P10632); assay: Inhibition of CYP2C8 in human liver microsome pre-incubated with compound for 5 mins followed NADPH addition and measured after 5 mins by LC-MS/MS analysis; assay type: ADME, microsomes
T1 sequence (P10632 whole entry): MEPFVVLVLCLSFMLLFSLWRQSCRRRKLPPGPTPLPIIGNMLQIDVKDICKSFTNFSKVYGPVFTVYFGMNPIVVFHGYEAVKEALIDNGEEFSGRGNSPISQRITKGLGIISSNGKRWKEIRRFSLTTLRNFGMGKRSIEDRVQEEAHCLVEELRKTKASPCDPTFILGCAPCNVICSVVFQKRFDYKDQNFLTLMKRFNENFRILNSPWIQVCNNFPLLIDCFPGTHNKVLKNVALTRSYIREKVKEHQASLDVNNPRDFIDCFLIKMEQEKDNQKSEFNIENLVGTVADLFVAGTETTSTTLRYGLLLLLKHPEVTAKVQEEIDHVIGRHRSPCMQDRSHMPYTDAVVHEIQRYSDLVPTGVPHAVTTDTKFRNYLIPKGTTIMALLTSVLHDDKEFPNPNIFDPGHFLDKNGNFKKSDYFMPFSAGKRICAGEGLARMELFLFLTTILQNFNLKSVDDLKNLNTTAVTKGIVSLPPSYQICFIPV

[6] = target: Cytochrome P450 2C19 (Homo sapiens, UniProt P33261); assay: Inhibition of CYP2C19 in human liver microsome pre-incubated with compound for 5 mins followed NADPH addition and measured after 30 mins by LC-MS/MS analysis; assay type: ADME, microsomes
[7] = species: Homo sapiens; assay: Selectivity index, ratio of IC50 for human recombinant CYP1A1 to IC50 for human recombinant CYP1B1 using 7-ethoxyresorufin as substrate
[8] = Metabolic stability in liver microsomes (unknown origin) assessed as half life at 0.5 mg/ml measured up to 60 mins by LC-MS/MS analysis; assay type: ADME, Microsome
[9] = Metabolic stability in liver microsomes (unknown origin) assessed as compound remaining at 0.5 mg/ml measured immediately in presence of NADPH regenerating system by LC-MS/MS analysis relative to control; assay type: ADME, Microsome; conditions: read-out: Stability
[10] = target: Cytochrome P450 2D6 (Homo sapiens, UniProt P10635); assay: Inhibition of CYP2D6 in human liver microsome pre-incubated with compound for 5 mins followed NADPH addition and measured after 10 mins by LC-MS/MS analysis; assay type: ADME, microsomes
[11] = target: Cytochrome P450 2C9 (Homo sapiens, UniProt P11712); assay: Inhibition of CYP2C9 in human liver microsome pre-incubated with compound for 5 mins followed NADPH addition and measured after 10 mins by LC-MS/MS analysis; assay type: ADME, microsomes
[12] = target: CYP2C9 (Homo sapiens, UniProt P11712); assay: Inhibition of CYP2C9 in human liver microsome at 10 uM pre-incubated with compound for 5 mins followed NADPH addition and measured after 10 mins by LC-MS/MS analysis relative to control; assay type: ADME; conditions: liver microsomes, time 15 min
[13] = Metabolic stability in liver microsome (unknown origin) assessed as intrinsic clearance at 0.5 mg/mL measured up to 60 mins by LC-MS/MS analysis; assay type: ADME; conditions: liver microsomes, read-out: CLH
[14] = Stability in human plasma assessed as compound remaining at 100 uM measured after 30 mins by LC-MS/MS analysis; assay type: ADME, cell-free; conditions: read-out: Stability
[15] = Metabolic stability in liver microsomes (unknown origin) assessed as compound remaining at 0.5 mg/ml measured after 60 mins in presence of NADPH regenerating system by LC-MS/MS analysis relative to control; assay type: ADME, Microsome; conditions: read-out: Stability
[16] = test system: A549/TR; assay: Reversal of drug resistance in human A549/Taxol cells assessed as increase in paclitaxel-induced cytotoxicity incubated for 48 hrs by CCK-8 assay; assay type: functional, cell-based; conditions: dose 2.5-10 µM
[17] = target: CYP2C19 (Homo sapiens, UniProt P33261); assay: Inhibition of CYP2C19 in human liver microsome at 10 uM pre-incubated with compound for 5 mins followed NADPH addition and measured after 30 mins by LC-MS/MS analysis relative to control; assay type: ADME; conditions: liver microsomes, time 35 min
[18] = target: T2, Cytochrome P450 1A1 (Homo sapiens, UniProt P04798); assay: Inhibition of human recombinant CYP1A1 using 7-ethoxyresorufin as substrate incubated under dark condition for 15 mins in presence of NADPH by EROD fluorescence assay; assay type: ADME
T2 sequence (P04798 whole entry): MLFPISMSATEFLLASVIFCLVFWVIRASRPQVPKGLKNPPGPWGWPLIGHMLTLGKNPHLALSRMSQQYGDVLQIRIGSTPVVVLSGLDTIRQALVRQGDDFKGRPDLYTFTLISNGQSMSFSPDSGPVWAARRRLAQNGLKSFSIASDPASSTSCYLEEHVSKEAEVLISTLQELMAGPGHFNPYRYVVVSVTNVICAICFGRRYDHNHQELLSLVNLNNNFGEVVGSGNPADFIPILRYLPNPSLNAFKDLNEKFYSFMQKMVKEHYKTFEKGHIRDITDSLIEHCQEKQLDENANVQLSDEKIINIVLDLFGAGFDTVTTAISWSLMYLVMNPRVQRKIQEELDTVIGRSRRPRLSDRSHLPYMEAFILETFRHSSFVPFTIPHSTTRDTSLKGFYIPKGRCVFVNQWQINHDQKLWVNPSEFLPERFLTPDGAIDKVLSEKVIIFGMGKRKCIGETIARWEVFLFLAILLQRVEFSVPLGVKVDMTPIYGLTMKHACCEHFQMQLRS

[19] = Metabolic stability in liver microsomes (unknown origin) assessed as compound remaining at 0.5 mg/ml measured after 30 mins in presence of NADPH regenerating system by LC-MS/MS analysis relative to control; assay type: ADME, Microsome; conditions: read-out: Stability
[20] = test system: A549; assay: Antiproliferative against human A549 cells assessed as inhibition of cell viability incubated for 48 hrs by CCK-8 assay; assay type: functional, cell-based; conditions: A549, 48 h
[21] = test system: A549/TR; assay: Synergistic antiproliferative activity against human A549/Taxol cells assessed as combination index at 10 uM in presence of 0.05 uM paclitaxel by Chou-Talalay method; assay type: functional
[22] = Clearance in male Sprague-Dawley rat at 2 mg/kg, iv measured up to 24 hrs by LC-MS/MS analysis; assay type: ADME, organism-based; conditions: in vivo
[23] = Tmax in male Sprague-Dawley rat at 2 mg/kg, iv measured up to 24 hrs by LC-MS/MS analysis; assay type: ADME, organism-based; conditions: in vivo
[24] = Tmax in male Sprague-Dawley rat at 10 mg/kg, po measured up to 24 hrs by LC-MS/MS analysis; assay type: ADME, organism-based; conditions: in vivo

CYP2C9, sequence (P11712 whole entry): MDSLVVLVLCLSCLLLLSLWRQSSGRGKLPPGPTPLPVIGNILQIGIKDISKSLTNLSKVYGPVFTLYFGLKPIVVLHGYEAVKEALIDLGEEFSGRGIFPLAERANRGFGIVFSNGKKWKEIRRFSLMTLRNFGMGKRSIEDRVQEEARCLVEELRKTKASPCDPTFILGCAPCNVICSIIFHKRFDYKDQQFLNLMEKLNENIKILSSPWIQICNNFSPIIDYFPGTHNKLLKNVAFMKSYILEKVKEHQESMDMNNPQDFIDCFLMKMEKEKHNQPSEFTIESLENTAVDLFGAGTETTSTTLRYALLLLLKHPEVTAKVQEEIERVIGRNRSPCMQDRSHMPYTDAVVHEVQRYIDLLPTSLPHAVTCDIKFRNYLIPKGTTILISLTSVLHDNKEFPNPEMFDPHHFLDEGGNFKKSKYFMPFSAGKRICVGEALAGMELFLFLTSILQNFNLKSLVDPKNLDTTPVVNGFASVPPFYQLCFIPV
CYP2C19, sequence (P33261 whole entry): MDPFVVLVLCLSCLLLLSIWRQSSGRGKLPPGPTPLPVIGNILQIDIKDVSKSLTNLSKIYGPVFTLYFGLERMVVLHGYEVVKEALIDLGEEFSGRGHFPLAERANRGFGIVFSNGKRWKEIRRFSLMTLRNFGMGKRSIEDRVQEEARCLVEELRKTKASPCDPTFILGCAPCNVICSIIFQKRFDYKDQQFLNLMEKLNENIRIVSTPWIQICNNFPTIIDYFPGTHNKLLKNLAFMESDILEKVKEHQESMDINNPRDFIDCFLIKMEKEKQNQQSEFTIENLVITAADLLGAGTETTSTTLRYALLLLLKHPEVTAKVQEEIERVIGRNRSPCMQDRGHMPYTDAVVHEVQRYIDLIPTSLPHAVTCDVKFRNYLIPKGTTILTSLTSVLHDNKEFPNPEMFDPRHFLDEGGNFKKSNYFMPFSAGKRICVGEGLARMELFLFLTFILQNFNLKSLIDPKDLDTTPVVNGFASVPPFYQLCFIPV
Cytochrome P450 2C9, sequence (P11712 whole entry): as the sequence (P11712 whole entry) above
Cytochrome P450 2C19, sequence (P33261 whole entry): as the sequence (P33261 whole entry) above
Cytochrome P450 2D6, sequence (P10635 whole entry): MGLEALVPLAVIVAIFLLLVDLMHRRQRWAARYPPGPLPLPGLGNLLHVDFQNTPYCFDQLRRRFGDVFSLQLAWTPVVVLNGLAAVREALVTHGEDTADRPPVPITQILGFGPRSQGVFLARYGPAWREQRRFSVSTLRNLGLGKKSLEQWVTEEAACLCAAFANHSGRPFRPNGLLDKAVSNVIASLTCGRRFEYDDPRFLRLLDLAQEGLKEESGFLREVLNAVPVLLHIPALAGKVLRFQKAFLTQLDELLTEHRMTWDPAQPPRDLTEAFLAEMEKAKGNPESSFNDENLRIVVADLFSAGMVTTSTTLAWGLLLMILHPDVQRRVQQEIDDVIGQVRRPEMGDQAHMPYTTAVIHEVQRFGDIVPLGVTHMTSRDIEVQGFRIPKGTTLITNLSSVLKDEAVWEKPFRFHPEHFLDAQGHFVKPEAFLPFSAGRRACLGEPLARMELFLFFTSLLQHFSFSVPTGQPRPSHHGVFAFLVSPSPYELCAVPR

Row | Compound | half-life at 100 µM [1] [h] | IC50 at 48 h [2] [µM] | remaining at 0.25 h [3] [%] | remaining at 5 min, 100 µM [4] [%] | IC50 [5] [µM] | IC50 [6] [µM] | Ratio IC50 [7] | half-life [8] [h] | remaining at 0 min [9] [%] | IC50 [10] [µM] | IC50 [11] [µM] | inhibition at 10 min, 10 µM [12] [%] | CLint scaled [13] [mL/min/kg] | remaining at 0.5 h, 100 µM [14] [%] | remaining at 1 h [15] [%] | Activity [16] | inhibition at 0.5 h, 10 µM [17] [%] | IC50 [18] [µM] | remaining at 0.5 h [19] [%] | IC50 [20] [µM] | other results
1 | N#Cc1ccc(-c2csc(C(=O)Nc3ccc(C(F)(F)F)cc3)n2)cc1 | > 2 | > 40 | 80.4 | 99 | > 10 | 6.45 | 1550 | 1.17 | 100 | > 10 | > 10 | 17.4 | 17.8 | 110 | 54.3 | Dose-dependent-effect | 60.8 | 0.0773 | 72.5 | > 20 | –
2 | N#Cc1ccc(-c2csc(C(=O)Nc3cc(Cl)cc(Cl)c3)n2)cc1 | > 2 | > 40 | 101 | 106 | – | – | > 56400 | > 1 | 100 | – | – | 2.21 | – | 116 | 97.1 | Dose-dependent-effect; Compound Showed Robust Reversal Activity | 1.45 | > 100 | 102 | > 20 | –
3 | O=C(Nc1cc(Cl)cc(Cl)c1)c1nc(-c2cccc(Cl)c2)cs1 | > 2 | > 40 | 102 | 87.1 | > 10 | > 10 | > 67500 | > 1 | 100 | > 10 | > 10 | 2.21 | 1.1 | 106 | 96.6 | Dose-dependent-effect | 7.73 | > 100 | 98.2 | 7.5 | CI [21]: 0.2; clearance [22]: 14.7 mL/min/kg; Tmax [23]: 4.8 min; Tmax [24]: 1 h
